Test results reported in ChEMBL document CHEMBL1201862, “PubChem BioAssay data set” (2004).
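Dose response: 5 concentrations. Exposure: 48 h. Format: 96-well plates. Endpoint: linear interpolation; highest concentration if not reached. GI50: concentration for 50% inhibition of growth.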 Active and inactive are the calls of the source. Cut-off read from the data, not from the text of the source: active = GI50 up to about 1.1 µM and inactive = higher.

Assays:
Assay in all cases: growth of human tumour cells (NCI), 48 h
CAKI-1 = test system: CAKI-1
EKVX = test system: EKVX
HCT-116 = test system: HCT-116
HT-29 = test system: HT-29
K562 = test system: K562
OVCAR-3 = test system: OVCAR-3
OVCAR-5 = test system: OVCAR-5
PC-3 = test system: PC-3
RPMI-8226 = test system: RPMI-8226
SF-268 = test system: SF-268
SF-295 = test system: SF-295
SF-539 = test system: SF-539
SN12C = test system: SN12C
SNB-19 = test system: SNB-19
SW-620 = test system: SW-620
T47D = test system: T47D
NCI-H460 = test system: NCI-H460
OVCAR-4 = test system: OVCAR-4

Measured: GI50

CC(C)=NNc1snnc1C(N)=O
inactive: CAKI-1 > 100 µM | EKVX > 100 µM | HCT-116 > 100 µM | HT-29 > 100 µM | K562 > 100 µM | OVCAR-3 > 100 µM | OVCAR-5 > 100 µM | PC-3 > 100 µM | RPMI-8226 > 100 µM | SF-268 > 100 µM | SF-295 > 100 µM | SF-539 > 100 µM | SN12C > 100 µM | SNB-19 > 100 µM | SW-620 > 10 µM | T47D > 100 µM

CC(C)c1c(P(=O)(c2ccccc2)c2ccccc2)n(C)c2ccccc12
inactive: EKVX > 100 µM | HCT-116 35.9 µM | HT-29 53.8 µM | K562 37.8 µM | NCI-H460 66.8 µM | OVCAR-3 26.4 µM | OVCAR-4 71.4 µM | OVCAR-5 54.7 µM | PC-3 58.7 µM | RPMI-8226 56.6 µM | SF-268 51.9 µM | SF-295 45.6 µM | SF-539 > 100 µM | SN12C > 100 µM | SNB-19 95.9 µM | SW-620 > 100 µM | T47D 77.1 µM

CCc1n[nH]c(=O)n1/N=C/c1ccc(/C=N/n2c(CC)n[nH]c2=O)cc1
inactive: CAKI-1 > 100 µM | EKVX > 100 µM | HCT-116 > 100 µM | HT-29 > 100 µM | K562 > 100 µM | NCI-H460 > 100 µM | OVCAR-3 > 100 µM | OVCAR-4 > 100 µM | OVCAR-5 > 100 µM | PC-3 > 100 µM | RPMI-8226 > 100 µM | SF-268 > 100 µM | SF-295 > 100 µM | SN12C > 100 µM | SNB-19 > 100 µM | SW-620 > 100 µM | T47D > 100 µM

O=C(O)C(O)(c1ccc(-c2ccccc2)cc1)c1ccc(-c2ccccc2)cc1
inactive: CAKI-1 28.8 µM | EKVX 24.3 µM | HCT-116 23.5 µM | HT-29 30.2 µM | K562 80.9 µM | NCI-H460 20.4 µM | OVCAR-3 15 µM | OVCAR-4 36 µM | OVCAR-5 26.7 µM | PC-3 27 µM | RPMI-8226 56.6 µM | SF-268 24.3 µM | SF-295 34 µM | SN12C 22 µM | SNB-19 49.4 µM | SW-620 32.4 µM | T47D 41.6 µM

Cc1ccc(OCC2OC(n3cnc4c(Cl)nc(Cl)nc43)CC2Oc2ccc(C)cc2)cc1 (centres undefined)
inactive: CAKI-1 1.57 µM | EKVX 3.52 µM | HCT-116 1.91 µM | HT-29 1.57 µM | NCI-H460 1.87 µM | OVCAR-3 2.37 µM | OVCAR-4 2.15 µM | OVCAR-5 5.78 µM | PC-3 2.44 µM | RPMI-8226 1.23 µM | SF-268 1.96 µM | SF-295 2.52 µM | SF-539 1.93 µM | SN12C 3.85 µM | SNB-19 1.5 µM | SW-620 3.66 µM | T47D 2.14 µM

OC(CN1CCCCC1)c1ccc(/C=C/c2ccc(Cl)cc2)cc1 (centres undefined)
inactive: EKVX > 100 µM | HCT-116 38.9 µM | HT-29 12 µM | K562 37.3 µM | NCI-H460 54.6 µM | OVCAR-3 89.1 µM | OVCAR-4 83.6 µM | OVCAR-5 31.8 µM | PC-3 90.6 µM | RPMI-8226 27.6 µM | SF-268 > 100 µM | SF-295 40.7 µM | SF-539 43.6 µM | SN12C > 100 µM | SNB-19 > 100 µM | SW-620 46.9 µM | T47D > 100 µM

O=c1cc(NNc2ccc(F)cc2)[nH]c(=O)[nH]1
inactive: EKVX 18.3 µM | HCT-116 17.9 µM | HT-29 16.9 µM | K562 17.8 µM | NCI-H460 19.4 µM | OVCAR-3 16.4 µM | OVCAR-4 9.68 µM | OVCAR-5 19.2 µM | PC-3 16.6 µM | RPMI-8226 11 µM | SF-268 20 µM | SF-295 > 100 µM | SF-539 21.5 µM | SN12C 18.2 µM | SNB-19 19.3 µM | SW-620 17.5 µM | T47D 27 µM

Cc1cc(O)c(C=O)c2c1C(=O)Oc1c(CO)c(O)c3c(c1O2)C(O)OC3=O (centres undefined) [SLAZINIC ACID]
inactive: CAKI-1 61.5 µM | EKVX > 100 µM | HCT-116 69.8 µM | HT-29 > 100 µM | OVCAR-3 77.1 µM | OVCAR-4 27.5 µM | OVCAR-5 > 100 µM | PC-3 > 100 µM | RPMI-8226 17.4 µM | SF-268 34.4 µM | SF-295 > 100 µM | SF-539 > 100 µM | SN12C > 100 µM | SNB-19 21.4 µM | SW-620 60 µM | T47D 54.5 µM

CCCCCCCCCCCCCCCCCCNC(=O)C(N)Cc1ccc(OCc2ccccc2)cn1 (centres undefined)
inactive: CAKI-1 17.2 µM | EKVX 22.6 µM | HCT-116 21.5 µM | HT-29 16.8 µM | K562 23.1 µM | NCI-H460 15.4 µM | OVCAR-3 25.4 µM | OVCAR-4 17.2 µM | OVCAR-5 21.1 µM | PC-3 14.2 µM | RPMI-8226 18.5 µM | SF-268 21.9 µM | SF-295 24 µM | SN12C 27.7 µM | SNB-19 19.8 µM | SW-620 23.2 µM | T47D 20.4 µM

CC1(C)/C(=N\Nc2ccc([N+](=O)[O-])cc2[N+](=O)[O-])C2CCC1C2 (centres undefined)
inactive: CAKI-1 > 100 µM | EKVX > 100 µM | HCT-116 5.65 µM | HT-29 > 100 µM | K562 > 100 µM | NCI-H460 > 100 µM | OVCAR-3 > 100 µM | OVCAR-4 84.5 µM | OVCAR-5 > 100 µM | PC-3 > 100 µM | RPMI-8226 > 100 µM | SF-268 > 100 µM | SF-295 15.2 µM | SN12C > 100 µM | SNB-19 > 100 µM | SW-620 > 100 µM | T47D > 100 µM

COc1cc([C@@H]2c3cc4c(cc3[C@H](OC3OC5COC(c6ccco6)OC5C(O)C3O)C3COC(=O)[C@@H]32)OCO4)cc(OC)c1OC (some centres undefined)
inactive: CAKI-1 5.35 µM | HCT-116 3.27 µM | HT-29 2.8 µM | NCI-H460 2.16 µM | OVCAR-3 3.21 µM | OVCAR-4 41.6 µM | OVCAR-5 7.66 µM | PC-3 3.48 µM | RPMI-8226 7.01 µM | SF-268 8.2 µM | SF-295 3.67 µM | SF-539 2.74 µM | SNB-19 3.9 µM | SW-620 3.5 µM | T47D 13.4 µM

OCCN(CCO)c1nc(N2CCCCC2)c2nc(N(CCO)CCO)nc(N3CCCCC3)c2n1 [DIPYRIDAMOLE]
inactive: CAKI-1 45.5 µM | EKVX 25.6 µM | HCT-116 40.3 µM | HT-29 19.5 µM | K562 24.8 µM | NCI-H460 28 µM | OVCAR-3 12.4 µM | OVCAR-4 59.4 µM | OVCAR-5 90.8 µM | PC-3 33.3 µM | RPMI-8226 > 10 µM | SN12C 34 µM | SW-620 58.3 µM | T47D 35.6 µM

O=c1[nH]nc(-c2ccccc2)c2[nH]c3c4ccccc4ccc3c12
inactive: EKVX 3.44 µM | OVCAR-4 1.76 µM | PC-3 1.28 µM | SF-268 1.33 µM | SN12C 3.87 µM | SNB-19 1.62 µM | T47D 5.4 µM
active: HCT-116 0.942 µM | HT-29 0.459 µM | K562 0.279 µM | NCI-H460 0.56 µM | OVCAR-3 0.424 µM | RPMI-8226 0.746 µM | SF-295 0.461 µM | SF-539 0.964 µM | SW-620 0.656 µM

CC1CC/C(=C\c2ccc(Cl)cc2)C2OC(N)=C(C#N)C(c3ccc(Cl)cc3)=C12 (centres undefined)
inactive: CAKI-1 15.1 µM | EKVX 5.55 µM | HCT-116 12.6 µM | HT-29 6.92 µM | K562 9.66 µM | OVCAR-3 11.7 µM | OVCAR-5 15.9 µM | PC-3 11.9 µM | RPMI-8226 7.6 µM | SF-268 13.2 µM | SF-539 14.3 µM | SN12C 13.7 µM | SNB-19 20.4 µM | SW-620 21.4 µM
active: T47D 0.442 µM

COc1ccc2[nH]c3cc4c(=O)c5cc(OC)ccc5[nH]c4cc3c(=O)c2c1
inactive: CAKI-1 > 100 µM | EKVX > 100 µM | HCT-116 > 100 µM | HT-29 > 100 µM | K562 > 100 µM | NCI-H460 > 100 µM | OVCAR-3 > 100 µM | OVCAR-4 > 100 µM | OVCAR-5 > 100 µM | PC-3 > 100 µM | RPMI-8226 > 100 µM | SF-268 > 100 µM | SF-295 > 100 µM | SN12C > 100 µM | SNB-19 > 100 µM | SW-620 > 100 µM | T47D > 100 µM

C[C@@H]1C(=O)CC2(O)[C@@]13C[C@@H](OC(=O)[C@@H]3O)[C@@H](C)[C@@]21COC1=O (some centres undefined)
inactive: EKVX > 100 µM | HCT-116 > 100 µM | HT-29 > 100 µM | K562 > 100 µM | NCI-H460 > 100 µM | OVCAR-3 > 100 µM | OVCAR-4 > 100 µM | OVCAR-5 > 100 µM | PC-3 > 100 µM | RPMI-8226 > 100 µM | SF-268 > 100 µM | SF-295 > 100 µM | SF-539 > 100 µM | SN12C > 100 µM | SNB-19 > 100 µM | SW-620 > 100 µM | T47D > 100 µM

CCOC(=O)CSc1[nH]c(NC(=S)Nc2ccccc2)c(C(N)=O)c1C(N)=O
inactive: CAKI-1 > 10 µM | EKVX > 10 µM | HT-29 > 10 µM | K562 > 10 µM | OVCAR-4 > 10 µM | PC-3 > 10 µM | RPMI-8226 > 10 µM | SF-268 > 10 µM | SF-295 > 10 µM | SN12C > 10 µM | SW-620 > 10 µM | T47D > 10 µM
